Tested on: normal human epidermal keratinocytes
Test: Protection of keratinocytes from ultraviolet induced cell death (apoptosis)
Format: cell-based
Details: even at micromolar concentrations
Excerpt: This effect is independent from and in addition to, the skin barrier repair and hydrating effects taurine exerts on dermal cells.

NCCS(=O)(=O)O [taurine, Taurine]
protection from ultraviolet induced cell death (apoptosis): can protect

From patent publication US20100239655A1, “TAURINE-BASED COMPOSITIONS AND THERAPEUTIC METHODS” (priority 2004, published 2010)
